Results published in patent publication US11608341B2, “Substituted tetrahydropyrazolo[3,4-d]pyrimidines and tetrahydropyrazolo[4,3-d]pyrimidines as C5A receptor modulators” (Idorsia Pharmaceuticals Ltd., priority 2018, dated 2023).

What follows are molecules tested against T1, C5AR1 (Homo sapiens, UniProt P21730) (assay: In vitro assay: antagonism of C5a-induced beta-arrestin recruitment (PathHunter) in CHO-K1 C5AR1 beta-arrestin cell line). Settings: antagonistic activity, 1-10 nM C5a agonist, geometric mean where several measurements, read-out: C5aR IC50.
T1 construct: host or cells: CHO-K1
T1 sequence (P21730 1-350): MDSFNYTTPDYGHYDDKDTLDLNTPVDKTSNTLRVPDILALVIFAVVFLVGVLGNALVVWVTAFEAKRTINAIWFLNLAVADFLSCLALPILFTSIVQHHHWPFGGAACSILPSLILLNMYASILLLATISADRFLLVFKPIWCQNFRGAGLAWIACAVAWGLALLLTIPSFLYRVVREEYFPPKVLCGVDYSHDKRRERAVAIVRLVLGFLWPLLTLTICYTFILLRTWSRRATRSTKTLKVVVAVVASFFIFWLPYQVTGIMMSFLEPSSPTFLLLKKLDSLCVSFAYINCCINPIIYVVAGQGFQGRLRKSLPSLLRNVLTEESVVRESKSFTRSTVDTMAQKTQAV
Format: cell-based
How it was run: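 Antagonist or DMSO added first, then C5a (1-10 nM, added at 6-fold end concentration), 1.5 h at 37 °C. PathHunter detection reagent was added for 45 min at RT before plate reading. IC50s come from antagonist serial dilutions in nmol/l and are geometric means of several measurements.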
Cc1cccc(F)c1N1CCC(N2C(=O)N(Cc3ncccc3C(F)(F)F)c3nn(C)cc3C2C)CC1 (single isomer, unassigned) [Example 355] gave an IC50 of 298 nM. COc1nccc(C)c1N1CCC(N2C(=O)N(Cc3ccccc3C(F)(F)F)c3nn(C4CC4)cc3C2C)CC1 (single isomer, unassigned) [Example 345] was tested, and the IC50 was 35 nM. COc1nccc(C)c1N1CCC(N2Cc3cn(C)nc3N(C(C)c3ccccc3C(F)(F)F)C2=O)CC1 (single isomer, unassigned) [Example 286] was tested, and the IC50 was 33 nM. In the case of Cc1cccc(F)c1N1CCC(N2Cc3nn(C)nc3N(Cc3ccccc3C(F)(F)F)C2=O)CC1 [Example 81], the IC50 is reported as 21 nM. Molecule CC1c2c[nH]nc2N(Cc2ccccc2C2CC2)C(=O)N1C1CCN(c2c(F)cccc2Cl)CC1 (single isomer, unassigned) [Example 372] has an IC50 of 11 nM. Cc1cccc(F)c1N1CCC(N2Cc3cn(CC(C)CN)nc3N(Cc3ccccc3C(F)(F)F)C2=O)CC1 (stereo not drawn) [Example 45] showed an IC50 of 203 nM. With Cc1cccc(F)c1N1CCC(N2Cc3nn(C4CC4)cc3N(Cc3ncccc3C(F)(F)F)C2=O)CC1 [Example 212] the IC50 was 10 nM. For Cc1cccc(F)c1N1CCC(N2Cc3cn(C)nc3N(Cc3ccccc3C3CC3)C2=O)CC1 [Example 228], the IC50 was 10 nM. Cn1cc2c(n1)CN(C1CCN(c3c(F)cccc3Cl)CC1)C(=O)N2Cc1ccccc1C(F)(F)F [Example 302] showed an IC50 of 48 nM. For Cc1cccc(F)c1N1CCC(C)(N2Cc3cn(C)nc3N(Cc3ccccc3C(F)(F)F)C2=O)C1 (single isomer, unassigned) [Example 235], the IC50 was 169 nM. In the case of CCn1cc2c(n1)CN(C1CCN(c3c(C)cccc3F)CC1)C(=O)N2Cc1ccccc1C(F)(F)F [Example 182], the IC50 is reported as 30 nM. Work on COc1nccc(C(F)(F)F)c1N1CCC(N2C(=O)N(Cc3ccccc3C3CC3)c3nn(C)cc3C2C)CC1 (single isomer, unassigned) [Example 375] yielded an IC50 of 146 nM. Work on Cc1cccc(F)c1N1CCC(N2C(=O)N(Cc3ccccc3C3CC3)c3cn(C4CC4)nc3C2C)CC1 (single isomer, unassigned) [Example 279] yielded an IC50 of 28 nM. Molecule Cn1cc2c(n1)N(Cc1ccccc1C1CC1)C(=O)N(C1CCN(c3c(F)cccc3C(F)F)CC1)C2 [Example 308] has an IC50 of 22 nM. In the case of COC(=O)C(Cl)Cn1cc2c(n1)N(Cc1ccccc1C(F)(F)F)C(=O)N(C1CCN(c3c(C)cccc3F)CC1)C2 (stereo not drawn) [Example 42], the IC50 is reported as 24 nM. COc1nccc(C)c1N1CCC(N2C(=O)N(Cc3ccccc3C(F)(F)F)c3cn(C4CC4)nc3C2C)CC1 (single isomer, unassigned) [Example 297] gave an IC50 of 326 nM. Cc1cccc(F)c1N1CCC(N2Cc3c(cnn3CC3CC3)N(Cc3ccccc3C(F)(F)F)C2=O)CC1 [Example 179] was tested, and the IC50 was 152 nM. COC(=O)N1CC[C@@H]1Cn1cc2c(n1)N(Cc1ccccc1C(F)(F)F)C(=O)N(C1CCN(c3c(C)cccc3F)CC1)C2 [Example 133] gave an IC50 of 22 nM. For C#CC(C)(C)n1cc2c(n1)N(Cc1ccccc1C(F)(F)F)C(=O)N(C1CCN(c3c(C)cccc3F)CC1)C2 [Example 160], the IC50 was 147 nM. For Cc1cccc(F)c1N1CCC(N2C(=O)N(Cc3ccccc3C(F)(F)F)c3cn(C4CC4)nc3C2C)CC1 (single isomer, unassigned) [Example 265], the IC50 was 12 nM. For COc1nccc(C(F)(F)F)c1N1CCC(N2C(=O)N(Cc3ccccc3C(F)(F)F)c3nn(C)cc3C2C)CC1 (single isomer, unassigned) [Example 362], the IC50 was 9 nM. Cc1cccc(F)c1N1CCC(N2Cc3cn(CC(C)F)nc3N(Cc3ccccc3C(F)(F)F)C2=O)CC1 (single isomer, unassigned) [Example 186] showed an IC50 of 8 nM. CC(C)=Cn1cc2c(n1)N(Cc1ccccc1C(F)(F)F)C(=O)N(C1CCN(c3c(C)cccc3F)CC1)C2 [Example 153] showed an IC50 of 40 nM. With Cc1cccc(F)c1N1CCC(N2Cc3cn(CC4(F)CC4)nc3N(Cc3ccccc3C(F)(F)F)C2=O)CC1 [Example 167] the IC50 was 10 nM. Cc1cccc(F)c1N1CCC(N2Cc3nn(C)cc3N(Cc3ccccc3C3CC3)C2=O)CC1 [Example 259] showed an IC50 of 49 nM. COC(=O)C(C)(C)n1cc2c(n1)N(Cc1ccccc1C(F)(F)F)C(=O)N(C1CCN(c3c(C)cccc3F)CC1)C2 [Example 27] showed an IC50 of 17 nM. Cc1cccc(F)c1N1CCC(N2Cc3cn(C[C@@H]4CC(F)(F)CN4)nc3N(Cc3ccccc3C(F)(F)F)C2=O)CC1 [Example 112] gave an IC50 of 18 nM. In the case of COc1nccc(C)c1N1CCC(N2C(=O)N(Cc3ccccc3C3CC3)c3c[nH]nc3C2C)CC1 (single isomer, unassigned) [Example 274], the IC50 is reported as 37 nM. CC(c1ccccc1C(F)(F)F)N1C(=O)N(C2CCN(c3c(F)cccc3C#N)CC2)Cc2cn(C)nc21 (single isomer, unassigned) [Example 289] was tested, and the IC50 was 55 nM. Cc1cccc(F)c1N1CCC(N2Cc3cn(CC(C)(C)NS(=O)(=O)c4ccccc4[N+](=O)[O-])nc3N(Cc3ccccc3C(F)(F)F)C2=O)CC1 [Example 110] showed an IC50 of 28 nM. COc1nccc(C)c1N1CCC(N2Cc3nn(CC4(F)CC4)cc3N(Cc3ccccc3C(F)(F)F)C2=O)CC1 [Example 222] was tested, and the IC50 was 19 nM. Cc1cccc(F)c1N1CCC(N2Cc3nn(C)cc3N(Cc3ncccc3C(F)(F)F)C2=O)CC1 [Example 15] showed an IC50 of 45 nM. Cc1cccc(F)c1N1CCC(N2Cc3cn(C(C)C(F)F)nc3N(Cc3ccccc3C(F)(F)F)C2=O)CC1 (single isomer, unassigned) [Example 188] showed an IC50 of 10 nM. Cc1cccc(F)c1N1CCC(N2Cc3cn(C[C@H]4CCN4C(=O)OC(C)C)nc3N(Cc3ccccc3C(F)(F)F)C2=O)CC1 [Example 135] showed an IC50 of 17 nM. For CCOC(=O)N1CC(n2cc3c(n2)N(Cc2ccccc2C(F)(F)F)C(=O)N(C2CCN(c4c(C)cccc4F)CC2)C3)C1 [Example 126], the IC50 was 15 nM. Work on COCn1cc2c(n1)N(Cc1ccccc1C(F)(F)F)C(=O)N(C1CCN(c3c(C)ccnc3OC)CC1)C2 [Example 227] yielded an IC50 of 10 nM. In the case of Cc1cccc(F)c1N1CCC(N2Cc3cn(C)nc3N(Cc3ccccc3OC3COC3)C2=O)CC1 [Example 250], the IC50 is reported as 10 nM. Cc1cccc(F)c1N1CCC(N2Cc3cn(C4CN(S(C)(=O)=O)C4)nc3N(Cc3ccccc3C(F)(F)F)C2=O)CC1 [Example 136] showed an IC50 of 163 nM. CNCCn1cc2c(n1)N(Cc1ccccc1C(F)(F)F)C(=O)N(C1CCN(c3c(C)cccc3F)CC1)C2 [Example 59] gave an IC50 of 196 nM. Work on CC(c1ccccc1C(F)(F)F)N1C(=O)N(C2CCN(c3c(F)cccc3F)CC2)Cc2cn(C)nc21 (single isomer, unassigned) [Example 291] yielded an IC50 of 116 nM. Molecule Cc1cccc(F)c1N1CCC(N2Cc3cn(CCNC(=O)OC(C)(C)C)nc3N(Cc3ccccc3C(F)(F)F)C2=O)CC1 [Example 67] has an IC50 of 15 nM. COc1nccc(C(F)F)c1N1CCC(N2C(=O)N(Cc3ccccc3C3CC3)c3nn(C4CC4)cc3C2C)CC1 (single isomer, unassigned) [Example 382] gave an IC50 of 21 nM. Cc1cccc(F)c1N1CCC(N2Cc3cn(CCN4CCCC4)nc3N(Cc3ccccc3C(F)(F)F)C2=O)CC1 [Example 62] showed an IC50 of 105 nM. Cc1cccc(F)c1N1CCC(N2Cc3cn(C4CN(C(=O)OC5(C(F)(F)F)COC5)C4)nc3N(Cc3ccccc3C(F)(F)F)C2=O)CC1 [Example 140] showed an IC50 of 18 nM. COC(=O)Cn1cc2c(n1)N(Cc1ccccc1C(F)(F)F)C(=O)N(C1CCN(c3c(C)cccc3F)CC1)C2 [Example 17] gave an IC50 of 13 nM.
